{"source": "ChEMBL document CHEMBL4732212", "about": "“CAP rigidification of MS-275 and chidamide leads to enhanced antiproliferative effects mediated through HDAC1, 2 and tubulin polymerization inhibition” (Eur J Med Chem, 2021)", "key": {"MDA-MB-231 [1]": {"tested_on": "MDA-MB-231", "experiment": "Cytotoxicity against human MDA-MB-231 cells assessed as reduction in cell viability incubated for 72 hrs by MTS assay", "type": "functional, cell-based", "details": "MDA-MB-231, 72 h"}, "MDA-MB-468": {"tested_on": "MDA-MB-468", "experiment": "Cytotoxicity against human MDA-MB-468 cells assessed as reduction in cell viability incubated for 72 hrs by MTS assay", "type": "functional, cell-based", "details": "MDA-MB-468, 72 h"}, "HeLa": {"tested_on": "HeLa", "experiment": "Cytotoxicity against human HeLa cells assessed as reduction in cell viability incubated for 72 hrs by MTS assay", "type": "functional, cell-based"}, "DLD-1": {"tested_on": "DLD-1", "experiment": "Cytotoxicity against human DLD-1 cells assessed as reduction in cell viability incubated for 72 hrs by MTS assay", "type": "functional, cell-based", "details": "DLD-1, 72 h"}, "HCT-116": {"tested_on": "HCT-116", "experiment": "Cytotoxicity against human HCT-116 cells assessed as reduction in cell viability incubated for 72 hrs by MTS assay", "type": "functional, cell-based", "details": "HCT-116, 72 h"}, "YCC-11": {"tested_on": "YCC-11", "experiment": "Antiproliferative activity against HDACi-sensitive human YCC-11 cells assessed as reduction in cell viability incubated for 72 hrs by MTS assay", "type": "functional, cell-based"}, "YCC3/7": {"tested_on": "YCC3/7", "experiment": "Antiproliferative activity against HDACi-resistant human YCC3/7 cells assessed as reduction in cell viability incubated for 72 hrs by MTS assay", "type": "functional"}, "MDA-MB-231 [2]": {"tested_on": "MDA-MB-231", "experiment": "Induction of cell cycle arrest in human MDA-MB-231 cells assessed as sub-G1 phase at 4 uM incubated for 72 hrs by PI staining based flow cytometry analysis (reference value: 0.8 %)", "type": "functional"}, "MDA-MB-231 [3]": {"tested_on": "MDA-MB-231", "experiment": "Induction of cell cycle arrest in human MDA-MB-231 cells assessed as sub-G1 phase at 8 uM incubated for 72 hrs by PI staining based flow cytometry analysis (reference value: 0.8 %)", "type": "functional"}, "HH": {"tested_on": "HH", "experiment": "Cytotoxicity against human HH cells assessed as reduction in cell viability incubated for 72 hrs by MTS assay", "type": "functional, cell-based"}, "HuT78": {"tested_on": "HuT78", "experiment": "Cytotoxicity against human HuT78 cells assessed as reduction in cell viability incubated for 72 hrs by MTS assay", "type": "functional, cell-based", "details": "HuT78, 72 h"}, "HL-60": {"tested_on": "HL-60", "experiment": "Cytotoxicity against human HL-60 cells assessed as reduction in cell viability incubated for 72 hrs by MTS assay", "type": "functional, cell-based", "details": "HL-60, 72 h"}, "KG-1": {"tested_on": "KG-1", "experiment": "Cytotoxicity against human KG-1 cells assessed as reduction in cell viability incubated for 72 hrs by MTS assay", "type": "functional, cell-based", "details": "KG-1, 72 h"}, "MDA-MB-231 [4]": {"tested_on": "MDA-MB-231", "experiment": "Induction of cell cycle arrest in human MDA-MB-231 cells assessed as increase in accumulation of G1 phase at 4 uM incubated for 24 hrs by PI staining based flow cytometry analysis", "type": "functional"}, "MDA-MB-231 [5]": {"tested_on": "MDA-MB-231", "experiment": "Induction of cell cycle arrest in human MDA-MB-231 cells assessed as increase in accumulation of G2/M phase at 2.5 uM incubated for 24 hrs by PI staining based flow cytometry analysis", "type": "functional"}, "NCI-H661": {"tested_on": "NCI-H661", "experiment": "Cytotoxicity against human NCI-H661 cells assessed as reduction in cell viability incubated for 72 hrs by MTS assay", "type": "functional, cell-based", "details": "NCI-H661, 72 h"}, "NCI-H1299": {"tested_on": "NCI-H1299", "experiment": "Cytotoxicity against human NCI-H1299 cells assessed as reduction in cell viability incubated for 72 hrs by MTS assay", "type": "functional, cell-based", "details": "NCI-H1299, 72 h"}, "A549": {"tested_on": "A549", "experiment": "Cytotoxicity against human A549 cells assessed as reduction in cell viability incubated for 72 hrs by MTS assay", "type": "functional, cell-based", "details": "A549, 72 h"}, "Sus scrofa": {"species_on_record": "Sus scrofa", "experiment": "Inhibition of porcine brain tubulin polymerization at 10 uM", "type": "tissue-based"}, "MES-SA [6]": {"tested_on": "MES-SA", "experiment": "Cytotoxicity against human MES-SA cells assessed as reduction in cell viability incubated for 72 hrs by MTS assay", "type": "functional, cell-based"}, "MES-SA/Dx5 [7]": {"tested_on": "MES-SA/Dx5", "experiment": "Cytotoxicity against human MES-SA/Dx5 cells assessed as reduction in cell viability incubated for 72 hrs by MTS assay", "type": "functional, cell-based", "details": "MES-SA/Dx5, 72 h"}, "MES-SA [8]": {"tested_on": "MES-SA", "experiment": "Cytotoxicity against human MES-SA cells assessed as cell viability at 2 uM incubated for 72 hrs by MTS assay relative to control", "type": "functional", "details": "read-out: Activity"}, "MES-SA [9]": {"tested_on": "MES-SA", "experiment": "Induction of cell cycle arrest in human MES-SA cells assessed as […] incubated for 72 hrs by PI staining based flow cytometry analysis (reference value: 0.9 %)", "type": "functional"}, "MES-SA/Dx5 [10]": {"tested_on": "MES-SA/Dx5", "experiment": "Induction of cell cycle arrest in human MES-SA/Dx5 cells assessed as […] at 8 uM incubated for 72 hrs by PI staining based flow cytometry analysis (reference value: 0.3 to 0.4 %)", "type": "functional"}, "MES-SA/Dx5 [11]": {"tested_on": "MES-SA/Dx5", "experiment": "Induction of cell cycle arrest in human MES-SA/Dx5 cells assessed as […] at 16 uM incubated for 72 hrs by PI staining based flow cytometry analysis (reference value: 0.3 to 0.4 %)", "type": "functional"}, "MES-SA/Dx5 [12]": {"tested_on": "MES-SA/Dx5", "experiment": "Induction of cell cycle arrest in human MES-SA/Dx5 cells assessed as […] at 32 uM incubated for 72 hrs by PI staining based flow cytometry analysis (reference value: 0.3 to 0.4 %)", "type": "functional"}, "MES-SA/Dx5 [13]": {"tested_on": "MES-SA/Dx5", "experiment": "Cytotoxicity against human MES-SA/Dx5 cells assessed as cell viability at 16 uM incubated for 72 hrs by MTS assay relative to control", "type": "functional", "details": "read-out: Activity"}}, "note": "Activity calls are given as the source filed them. The calls are words filed in the database; no cut-off is given here.", "data": [{"smiles": "Nc1ccccc1NC(=O)c1ccc(CNC(=O)OCc2cccnc2)cc1", "note": "[ENTINOSTAT]", "values": [{"measurement": "IC50", "setting": "MDA-MB-231 [1]", "value": 2630, "unit": "nM"}, {"measurement": "IC50", "setting": "MDA-MB-468", "value": 2730, "unit": "nM"}, {"measurement": "IC50", "setting": "HeLa", "value": "> 4000", "unit": "nM"}, {"measurement": "IC50", "setting": "DLD-1", "value": 1740, "unit": "nM"}, {"measurement": "IC50", "setting": "HCT-116", "value": 820, "unit": "nM"}, {"measurement": "inhibition", "setting": "YCC-11", "value": "Active"}, {"measurement": "inhibition", "setting": "YCC3/7", "value": "Active"}, {"measurement": "Activity", "setting": "MDA-MB-231 [2]", "value": 3.4, "unit": "%"}, {"measurement": "Activity", "setting": "MDA-MB-231 [3]", "value": 16.3, "unit": "%"}, {"measurement": "IC50", "setting": "HH", "value": 490, "unit": "nM"}, {"measurement": "IC50", "setting": "HuT78", "value": "> 1000", "unit": "nM"}, {"measurement": "IC50", "setting": "HL-60", "value": 370, "unit": "nM"}, {"measurement": "IC50", "setting": "KG-1", "value": 420, "unit": "nM"}, {"measurement": "Activity", "setting": "MDA-MB-231 [4]", "value": "Active"}, {"measurement": "Activity", "setting": "MDA-MB-231 [5]", "value": "Active"}, {"measurement": "IC50", "setting": "NCI-H661", "value": "> 2000", "unit": "nM"}, {"measurement": "IC50", "setting": "NCI-H1299", "value": "> 2000", "unit": "nM"}, {"measurement": "IC50", "setting": "A549", "value": 1480, "unit": "nM"}]}, {"smiles": "COc1cccc(CNc2nc(N)nc3c2ccn3Cc2ccc(C(=O)Nc3ccccc3N)cc2)c1", "values": [{"measurement": "IC50", "setting": "MDA-MB-231 [1]", "value": 1260, "unit": "nM"}, {"measurement": "IC50", "setting": "MDA-MB-468", "value": 2640, "unit": "nM"}, {"measurement": "IC50", "setting": "HeLa", "value": 1260, "unit": "nM"}, {"measurement": "IC50", "setting": "DLD-1", "value": 2670, "unit": "nM"}, {"measurement": "IC50", "setting": "HCT-116", "value": 590, "unit": "nM"}]}, {"smiles": "CCC1=C[C@@H]2CN(C1)Cc1c([nH]c3ccccc13)[C@@](C(=O)OC)(c1cc3c(cc1OC)N(C)[C@H]1[C@@](O)(C(=O)OC)[C@H](OC(C)=O)[C@]4(CC)C=CCN5CC[C@]31[C@@H]54)C2", "note": "[VINORELBINE]", "values": [{"measurement": "inhibition", "setting": "Sus scrofa", "value": "Active"}, {"measurement": "IC50", "setting": "NCI-H661", "value": 120, "unit": "nM"}, {"measurement": "IC50", "setting": "NCI-H1299", "value": 230, "unit": "nM"}, {"measurement": "IC50", "setting": "A549", "value": 600, "unit": "nM"}, {"measurement": "IC50", "setting": "MES-SA [6]", "value": 210, "unit": "nM"}, {"measurement": "IC50", "setting": "MES-SA/Dx5 [7]", "value": "> 32000", "unit": "nM"}, {"measurement": "viability at 2 µM", "setting": "MES-SA [8]", "value": 17.4, "unit": "%"}, {"measurement": "Activity", "setting": "MES-SA [9]", "value": 11.8, "unit": "%"}, {"measurement": "Activity", "setting": "MES-SA/Dx5 [10]", "value": 0.8, "unit": "%"}, {"measurement": "Activity", "setting": "MES-SA/Dx5 [11]", "value": 1.1, "unit": "%"}, {"measurement": "Activity", "setting": "MES-SA/Dx5 [12]", "value": 2.3, "unit": "%"}, {"measurement": "viability at 16 µM", "setting": "MES-SA/Dx5 [13]", "value": 80, "unit": "%"}]}]}
